Results from patent US10640495B2, “Heterocycle derivatives having TrkA inhibitory activity” (Shionogi & Co., Ltd., priority 2015, dated 2020).
Where two headings read alike, the source gives them in different places.

Target: human TrkA (Homo sapiens (Human), UniProt P04629)
Test: Human TrkA inhibition assay (Test Example 2)
Format: biochemical
How it was run: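 Mobility-shift readout of phosphorylated versus unphosphorylated fluorescent peptide gave conversion ratio, normalized to DMSO and no-enzyme wells; IC50 by logistic fit of 10- or 15-point 3-fold dilutions. Conditions: 1 nmol/L enzyme, 15 min compound preincubation, then 500 μmol/L ATP plus 1.5 μmol/L peptide, 120 min, 37 °C.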

[1] = Table 154, human TrkA inhibition, read-out: IC50
[2] = Table 157, human TrkA inhibition, read-out: IC50
[3] = Table 155, human TrkA inhibition, read-out: IC50
[4] = human TrkA 1 nmol/L, ATP 500 μmol/L, 120 min at 37° C., read-out: IC50 values (TrkA phosphorylation inhibition)
[5] = Table 153, human TrkA inhibition, read-out: IC50

Chain of human TrkA (P04629 440-796): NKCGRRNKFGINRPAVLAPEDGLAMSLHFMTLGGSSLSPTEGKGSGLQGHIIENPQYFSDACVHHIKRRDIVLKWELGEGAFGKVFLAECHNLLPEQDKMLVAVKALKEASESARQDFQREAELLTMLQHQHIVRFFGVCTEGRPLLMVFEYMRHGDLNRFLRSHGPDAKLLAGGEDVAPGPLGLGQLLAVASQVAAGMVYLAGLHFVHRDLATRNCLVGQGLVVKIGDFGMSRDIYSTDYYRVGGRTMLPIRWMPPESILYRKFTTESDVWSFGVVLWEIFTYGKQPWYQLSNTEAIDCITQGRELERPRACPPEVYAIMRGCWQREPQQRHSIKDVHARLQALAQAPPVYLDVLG

Cc1c(-c2cnc3c(cnn3C)c2)nn(-c2ccccc2)c1NC(=O)N[C@@H]1CN(C)O[C@H]1c1ccc(F)c(F)c1 (racemic) [Compound I-207]
IC50 [1]: < 100 nM

COCCN1C[C@@H](NC(=O)Nc2c(C)c(-c3cnc4c(c3)nc(C#N)n4C)nn2-c2ccccc2)[C@H](c2ccnc(F)c2)O1 (racemic) [Compound I-220]
IC50 [1]: < 100 nM

COCCN1C[C@@H](NC(=O)Nc2c(C)c(-c3ccc(C(=O)NOC)nc3)nn2-c2ccccc2)[C@H](c2ccc(F)c(F)c2)O1 (racemic) [Compound I-234]
IC50 [1]: < 100 nM

CCN1C[C@@H](NC(=O)Nc2c(C)c(-c3ccn4ccnc4c3)nn2-c2ccccc2)[C@H](c2ccc(F)c(F)c2)O1 (racemic) [Compound I-625]
IC50 [2]: < 100 nM

COCCN1C[C@@H](NC(=O)Nc2c(C)c(-c3cnc4c(c3)CN(C)CC4)nn2-c2ccccc2)[C@H](c2ccnc(F)c2)O1 (racemic) [Compound I-440]
IC50 [3]: < 100 nM

Cc1c(-c2cnc3c(cnn3C)c2)nn(-c2ccccc2)c1NC(=O)N[C@@H]1CN(CC2CC2)O[C@H]1c1ccc(F)c(F)c1 (racemic) [Compound I-201]
IC50 [1]: < 100 nM

COCCN1C[C@@H](NC(=O)Nc2c(C)c(-c3cnc(N4C[C@H]5CC[C@@H](C4)O5)nc3)nn2-c2ccccc2)[C@H](c2ccnc(F)c2)O1 (racemic) [Compound I-486]
IC50 [3]: < 100 nM

COCCN1C[C@@H](NC(=O)Nc2c(C)c(-c3ccn4ccnc4c3)nn2-c2ccccc2)[C@H](c2ccc(F)c(F)c2)O1 [Compound I-461]
IC50 [3]: < 100 nM

CCN1C[C@@H](NC(=O)Nc2c(C)c(OCCC3CCNC3)nn2-c2ccccc2)[C@H](c2ccc(F)c(F)c2)O1 (stereo partly shown) [Compound I-599]
IC50 [2]: < 100 nM

COCCN1C[C@@H](NC(=O)Nc2c(C)c(-c3cnc(OC)c(C(=O)O)c3)nn2-c2ccccc2)[C@H](c2cnc(F)c(F)c2)O1 (racemic) [Compound I-179]
IC50 [1]: < 100 nM

COCCN1C[C@@H](NC(=O)Nc2c(C)c(-c3cnc(OCC(F)F)nc3)nn2-c2ccccc2)[C@H](c2ccnc(F)c2)O1 (racemic) [Compound I-436]
IC50 [4]: 4 nM

COCCN1C[C@@H](NC(=O)Nc2c(C)c(-c3cnn(C)c3)nn2CCO)[C@H](c2ccc(F)c(F)c2)O1 [Compound I-493]
IC50 [3]: > 1000 nM

COCCN1C[C@@H](NC(=O)Nc2c(C)c(OCc3cnn(C)c3)nn2-c2ccccc2)[C@H](c2ccnc(F)c2)O1 (racemic) [Compound I-472]
IC50 [3]: < 100 nM

COCCN1C[C@@H](NC(=O)Nc2c(C)c(-c3cnc4c(c3)OCCN4)nn2-c2ccccc2)[C@H](c2ccnc(F)c2)O1 (racemic) [Compound I-281]
IC50 [1]: < 100 nM

Cc1c(-c2cnc3c(cnn3C)c2)nn(-c2ccccc2)c1NC(=O)N[C@@H]1CN(CC(F)(F)F)O[C@H]1c1ccc(F)c(F)c1 (racemic) [Compound I-305]
IC50 [1]: < 100 nM

COCCN1C[C@@H](NC(=O)Nc2c(C)c(C)nn2-c2ccccc2)[C@H](c2ccnc(F)c2)O1 (racemic) [Compound I-522]
IC50 (Table 156, human TrkA inhibition, read-out: IC50): < 100 nM

COCCN1C[C@@H](NC(=O)Nc2c(C)c(-c3cnn(C)c3)nn2-c2ccc(F)cc2)[C@H](c2ccc(F)c(F)c2)O1 (racemic) [Compound I-87]
IC50 [5]: < 100 nM

COCCN1C[C@@H](NC(=O)Nc2c(C)c(-c3cnc4cccnc4c3)nn2-c2ccccc2)[C@H](c2ccnc(F)c2)O1 (racemic) [Compound I-188]
IC50 [1]: < 100 nM

CCN1C[C@@H](NC(=O)Nc2c(C)c(OCC(N)=O)nn2-c2ccccc2)[C@H](c2ccc(F)c(F)c2)O1 (racemic) [Compound I-645]
IC50 [4]: 68 nM

COCCN1C[C@@H](NC(=O)Nc2c(C)c(C3=CCNCC3)nn2-c2ccccc2)[C@H](c2ccc(F)c(F)c2)O1 (racemic) [Compound I-30]
IC50 (Table 152, human TrkA inhibition, read-out: IC50_nM): < 100 nM

COCCN1C[C@@H](NC(=O)Nc2c(C)c(-c3cnc(N=S(C)(C)=O)c(C)c3)nn2-c2ccccc2)[C@H](c2ccc(F)c(F)c2)O1 (racemic) [Compound I-92]
IC50 [5]: < 100 nM

CCN1C[C@@H](NC(=O)Nc2c(C)c(OCC(C)(C)O)nn2-c2ccccc2)[C@H](c2ccc(F)c(F)c2)O1 (racemic) [Compound I-656]
IC50 [2]: 100 to 1000 nM

COCCN1C[C@@H](NC(=O)Nc2c(C)c(-c3ccn4ccnc4c3)nn2-c2ccccc2)[C@H](c2ccnc(F)c2)O1 (racemic) [Compound I-471]
IC50 [3]: < 100 nM

COCCN1C[C@@H](NC(=O)Nc2c(C)c(-c3ccc(N4CCCC4)nc3)nn2-c2ccccc2)[C@H](c2ccnc(F)c2)O1 (racemic) [Compound I-283]
IC50 [1]: < 100 nM

COCCN1C[C@@H](NC(=O)Nc2c(C)c(OCC3CN(C(C)=O)CCO3)nn2-c2ccccc2)[C@H](c2ccnc(F)c2)O1 (stereo partly shown) [Compound I-504]
IC50 [3]: < 100 nM

COCCN1C[C@@H](NC(=O)Nc2c(C)c(-c3cnc(OC)c(C(=O)NC4CCOCC4)c3)nn2-c2ccc(F)cc2)[C@H](c2ccnc(F)c2)O1 (racemic) [Compound I-239]
IC50 [4]: 3.8 nM

COCC[C@@H]1C[C@@H](NC(=O)Nc2c(C)c(-c3cnc4c(cnn4C)c3)nn2-c2ccccc2)[C@H](c2ccc(F)c(F)c2)O1 (racemic) [Compound I-99]
IC50 [5]: < 100 nM

CNC(=O)c1cc(-c2nn(-c3ccccc3)c(NC(=O)N[C@@H]3CNO[C@H]3c3ccc(F)c(F)c3)c2C)cnc1OC (racemic) [Compound I-474]
IC50 [3]: 100 to 1000 nM

Cc1c(-c2cnn(C)c2)nn(-c2ccccc2)c1NC(=O)N[C@@H]1CN(CC(F)(F)F)O[C@H]1c1ccc(F)c(F)c1 (racemic) [Compound I-304]
IC50 [1]: 100 to 1000 nM

COCCN1C[C@@H](NC(=O)Nc2c(C)c(-c3ccc(N4CCC(O)CC4)nc3)nn2-c2ccccc2)[C@H](c2ccnc(F)c2)O1 (racemic) [Compound I-278]
IC50 [4]: 3.7 nM

COCCN1C[C@@H](NC(=O)Nc2c(C)c(-c3cnc(N=S(C)(C)=O)nc3)nn2-c2ccccc2)[C@H](c2ccc(F)c(F)c2)O1 [Compound I-268]
IC50 [4]: 0.55 nM

COCCN1C[C@@H](NC(=O)Nc2c(C)c(-c3cnc(C(=O)NC4CC4)c(C)c3)nn2-c2ccccc2)[C@H](c2ccnc(F)c2)O1 (racemic) [Compound I-169]
IC50 [5]: < 100 nM

COCCN1C[C@@H](NC(=O)Nc2c(C)c(-c3cnc(C)nc3)nn2-c2ccccc2)[C@H](c2ccnc(F)c2)O1 (racemic) [Compound I-47]
IC50 [4]: 4 nM

CNC(=O)c1cc(-c2nn(-c3ccccc3)c(NC(=O)N[C@@H]3CN(Cc4ccco4)O[C@H]3c3ccc(F)c(F)c3)c2C)cn(C)c1=O (racemic) [Compound I-149]
IC50 [5]: < 100 nM

Cc1c(-c2cccnc2)nn(-c2ccccc2)c1NC(=O)N[C@@H]1CN(CC(F)F)O[C@H]1c1ccc(F)c(F)c1 (racemic) [Compound I-629]
IC50 [2]: < 100 nM

COCCN1C[C@@H](NC(=O)Nc2c(C)c(-c3cnc(OC)c(OC)c3)nn2-c2ccccc2)[C@H](c2cnc(F)c(F)c2)O1 (racemic) [Compound I-429]
IC50 [3]: < 100 nM

COc1ncc(-c2nn(-c3ccccc3)c(NC(=O)N[C@@H]3CN(CCCO)O[C@H]3c3ccc(F)c(F)c3)c2C)cn1 (racemic) [Compound I-678]
IC50 [2]: 100 to 1000 nM

COCCN1C[C@@H](NC(=O)Nc2c(C)c(-c3cnc(OC4CC4)nc3)nn2-c2ccccc2)[C@H](c2ccnc(F)c2)O1 (racemic) [Compound I-425]
IC50 [3]: < 100 nM

Cc1c(-c2cnc3c(cnn3C)c2)nn(-c2ccccc2)c1NC(=O)N[C@@H]1CN(CCC(F)(F)F)O[C@H]1c1ccc(F)c(F)c1 (racemic) [Compound I-622]
IC50 [2]: > 1000 nM

COCCN1C[C@@H](NC(=O)Nc2c(C)c(-c3cnc4c(c3)nnn4C)nn2-c2ccccc2)[C@H](c2ccc(F)cc2)O1 (racemic) [Compound I-118]
IC50 [5]: < 100 nM

COCCN1C[C@@H](NC(=O)Nc2c(C)c(-c3cnc(N4CC(F)C4)nc3)nn2-c2ccccc2)[C@H](c2ccnc(F)c2)O1 (racemic) [Compound I-480]
IC50 [3]: < 100 nM

COCCN1C[C@@H](NC(=O)Nc2c(C)c(-c3cnc(N4CCOCC4)nc3)nn2-c2ccccc2)[C@H](c2ccnc(F)c2)O1 (racemic) [Compound I-324]
IC50 [3]: < 100 nM

COCCN1C[C@@H](NC(=O)Nc2c(C)c(-c3cnc(N(C)CCOC)nc3)nn2-c2ccccc2)[C@H](c2ccnc(F)c2)O1 (racemic) [Compound I-588]
IC50 [2]: < 100 nM

COCCN1C[C@@H](NC(=O)Nc2c(C)c(CCN(C)C)nn2-c2ccccc2)[C@H](c2ccc(F)c(F)c2)O1 [Compound I-641]
IC50 [2]: < 100 nM

COCCN1C[C@@H](NC(=O)Nc2c(C(F)(F)F)c(C)nn2-c2ccccc2)[C@H](c2ccnc(F)c2)O1 (racemic) [Compound I-660]
IC50 [4]: 70 nM

COCCN1C[C@@H](NC(=O)Nc2c(C)c(-c3cnc4c(c3)ncn4CC(=O)N3CCN(C)CC3)nn2-c2ccccc2)[C@H](c2ccnc(F)c2)O1 (racemic) [Compound I-400]
IC50 [3]: < 100 nM

COCCN1C[C@@H](NC(=O)Nc2c(C)c(-c3ccc(OC)nc3)nn2-c2ccccc2)[C@H](c2ccnc(F)c2)O1 (racemic) [Compound I-323]
IC50 [3]: < 100 nM

COCCN1C[C@@H](NC(=O)Nc2c(C)c(-c3cnc4c(c3)c(CO)nn4C)nn2-c2ccccc2)[C@H](c2ccnc(F)c2)O1 (racemic) [Compound I-434]
IC50 [3]: < 100 nM

COCCN1C[C@@H](NC(=O)Nc2c(C)c(-c3cnc4c(c3)c(C(=O)OC)nn4C)nn2-c2ccccc2)[C@H](c2ccnc(F)c2)O1 (racemic) [Compound I-369]
IC50 [3]: < 100 nM

COCC[C@@H]1C[C@@H](NC(=O)Nc2c(C)c(-c3cc(C(=O)OC)c(=O)n(C)c3)nn2-c2ccccc2)[C@H](c2ccnc(F)c2)O1 [Compound I-251]
IC50 [1]: < 100 nM

COCCN1C[C@@H](NC(=O)Nc2c(C)c(-c3cnc(OC)c(C(=O)NC4CCOCC4)c3)nn2-c2ccc(F)cc2)[C@H](c2ccc(F)c(F)c2)O1 (racemic) [Compound I-184]
IC50 [1]: < 100 nM

COCCC1C[C@@H](NC(=O)Nc2c(C)c(-c3cnc(CO)nc3)nn2-c2ccccc2)[C@H](c2ccccc2)O1 (stereo partly shown) [Compound I-296]
IC50 [1]: < 100 nM
